This is an account of results in PMC9246256, “Structure-based optimization of type III indoleamine 2,3-dioxygenase 1 (IDO1) inhibitors” (Journal of Enzyme Inhibition and Medicinal Chemistry, 2022).

Molecules are shown by their SMILES. Like-named read-outs stand apart in the source and are kept apart here.

Data set [1] deals with T1, hIDO1 (Homo sapiens, UniProt P14902).
T1 construct: The full ORF of hIDO1 was cloned into the mammalian expression vector pcDNA6/myc-His; myc-His (vector-encoded); host or cells: HEK 293 T
To be noted: previously determined, 200 µM, cited from earlier work.

Data set [2] deals with HEK 293 T cells. The conditions noted are these: previously determined, 200 µM, cited from earlier work.
The test system of a further data set is TDO. Details: method as in PMID 22616902. To be noted: undetectable activity; cited from earlier work.
The target of data set [3] is T2, purified recombinant IDO1 (Homo sapiens, UniProt P14902).
T2 construct: Full-length human IDO1 gene was cloned into the pET-28a vector; inferred from pET-28a vector and HisTrap purification; made in house; host or cells: E. coli Rosetta (DE3)
The data set can be described thus: Enzymatic IDO1 inhibition assay (ascorbate/methylene blue reduction system, HPLC detection of kynurenine). It is filed as biochemical. The conditions noted are these: for IC50: enzymatic; for LE [kcal/mol/HA]: ligand efficiency, LE = -RT log(IC50)/number of heavy atoms, from enzymatic IC50.

Another data set has as its system murine IDO2. More on the design: method as in PMID 27469130. To be noted: murine IDO2, cellular; cited from earlier work.
The target in data set [4] is T1, hIDO1. Nature of the data set: Cellular hIDO1 inhibition (kynurenine production) in transiently transfected HEK 293 T cells. It is filed as cell-based.
Data set [5] deals with HEK 293 T cells. The data set can be described thus: Cell viability / cellular toxicity (DAPI staining, cytometry). To be noted: compound 200 µM, 7 h. It is filed as cell-based, human.
Data set [6] addresses T1, hIDO1. The data set can be described thus: Cellular hIDO1 inhibition (kynurenine production) in transiently transfected HEK 293 T cells. It is filed as cell-based. To be noted: HEK 293 T cells transfected with hIDO1; read-out: Cell. IC50 [ μ M] (SD).
Setting [7] is: ref 1 of Supporting Information (Röhrig et al. 2021).
[8] abbreviates: L-Trp 100 µM, 0.01% Triton X-100, 5% DMSO, 20 min at room temperature, pH 6.5, duplicates, read-out: IC50 [ μ M] (SD).

T2 sequence (P14902 whole entry): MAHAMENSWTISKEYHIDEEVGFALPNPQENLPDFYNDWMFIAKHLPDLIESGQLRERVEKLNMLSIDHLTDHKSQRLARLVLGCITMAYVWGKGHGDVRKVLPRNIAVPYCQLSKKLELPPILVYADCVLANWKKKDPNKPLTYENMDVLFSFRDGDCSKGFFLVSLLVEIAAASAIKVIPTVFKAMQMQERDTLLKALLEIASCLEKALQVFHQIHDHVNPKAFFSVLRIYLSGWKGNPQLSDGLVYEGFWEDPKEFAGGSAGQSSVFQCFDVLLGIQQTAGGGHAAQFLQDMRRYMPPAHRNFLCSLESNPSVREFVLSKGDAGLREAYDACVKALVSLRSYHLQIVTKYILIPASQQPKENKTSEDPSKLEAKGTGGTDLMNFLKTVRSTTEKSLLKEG
T1 sequence (P14902 whole entry): as above

For the compound `Oc1ccc(Cl)cc1-c1cnn[nH]1` [Compound 9], on hIDO1 [1] (setting [7]), the “Inh. [%]” value is on record as 100%. For the same compound, the “Tox. [%]” value with HEK 293 T cells [2] (setting [7]) is on record as 4%. Moreover, the “activities on TDO” value in the data set with TDO is more than 100 µM.
For the compound `Clc1cccc(-c2cnn[nH]2)c1/C=C/C1CCCCC1` [Compound 42], the “Inh. [%]” value on hIDO1 [1] (ref 3 of Supporting Information (Röhrig et al. 2016)) was 56%. The IC50 in data set [3] (setting [8]) is 260000 nM; in the data set on murine IDO2, 110000 nM. The “LE [kcal/mol/HA]” value in data set [3] turned out to be 0.24 kcal/mol/HA. Also, the “Tox. [%]” value with HEK 293 T cells [2] (ref 3 of Supporting Information (= main text ref 62)) is 5%.
For `Nc1cc(F)c(Br)cc1-c1nc[nH]n1` [Compound 144, 4-Bromo-5-fluoro-2-(1H-1,2,4-triazol-3-yl)aniline], the melting point was in the range of 243 to 246 °C. The same compound returned an inhibition at 200 µM at hIDO1 [4] of 100%. The “Tox. [%]” value in the data set on HEK 293 T cells [5] is 17 (2) %. In data set [3] (setting [8]), the IC50 was 34 nM. For the same compound, in [3] (read-out: enzymatic IC50), the IC50 turned out to be 34 nM. Also, the “LE [kcal/mol/HA]” value in [3] came out at 0.73 kcal/mol/HA. Also, the IC50 at hIDO1 [6] is 34 nM.

Broadly, the IC50 is the concentration that gives 50% inhibition. A word on the inhibition: it is the drop in the measured response relative to a control, in per cent. In general, melting point refers to the temperature of the solid-liquid transition.
